Assay results reported in patent publication US8722849B2, “Polypeptides” (Novo Nordisk A/S, priority 2011, dated 2014).
Starred links: 1 amine or outer side, 2 acyl side, 3 side chain; linkers in the order of their positions; H or OH if unused. Positions of bridges follow the written chain, without caps; N, C: chain ends. Residues, ends and D or L forms follow the SMILES beside them. *: point of attachment. C20 diacid = O=C(O)CCCCCCCCCCCCCCCCCCC(=O)*; γGlu = O=C(O)[C@H](CCC(=O)[*:2])N[*:1]

How the values were obtained:
food intake = experiment: Assay (I) efficacy testing on appetite (food intake), ad libitum fed rat model; type: in vivo, Sprague Dawley (SD) rats
Outline: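 Food consumption was logged per animal every hour up to 7 h and again at 24 h (occasionally 48 h) after a single 0.01–3 mg/kg dose, given sc, po or ip at dark-phase onset. Ad libitum fed SD rats, 200–250 g, kept on inverted light/dark cycle; vehicle group included, outliers removed by Grubbs test.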

[1] = Assay (III) ThT fibrillation assay for physical stability; type: physicochemical; details: ThT fibrillation assay
Outline: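 Freshly prepared formulations, pH-adjusted, with 1 μM ThT; four or eight replicates incubated at 37 °C under 960 rpm orbital shaking. Fluorescence (ex 444/em 485 nm) read every 20 min; […]. Peptide concentration measured by RP-HPLC before and after the run.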

Row | ThT pH 4.0 lag time (h) [1] [h] | SMILES | Food intake reduction 0-24 h 3 nmol/kg (%) (food intake; 0-24 h) | Food intake reduction 0-24 h 30 nmol/kg (%) (food intake; 0-24 h, 30 nmol/kg) | Food intake reduction 24-48 h 3 nmol/kg (%) (food intake; 24-48 h) | Food intake reduction 24-48 h 30 nmol/kg (%) (food intake; 24-48 h, 30 nmol/kg)
1 | 11 | CC[C@H](C)[C@H](NC(=O)[C@@H]1CCCN1C(=O)CNC(=O)[C@H](Cc1ccccc1)NC(=O)[C@H](CC(N)=O)NC(=O)[C@H](CC(N)=O)NC(=O)[C@H](CO)NC(=O)[C@H](CO)NC(=O)[C@H](CCCNC(=N)N)NC(=O)[C@H](Cc1c[nH]cn1)NC(=O)[C@H](CC(C)C)NC(=O)[C@H](Cc1ccccc1)NC(=O)[C@H](CCC(=O)O)NC(=O)[C@H](C)NC(=O)[C@H](CC(C)C)NC(=O)[C@H](CCCNC(=N)N)NC(=O)[C@H](CCC(N)=O)NC(=O)[C@@H](NC(=O)[C@H](C)NC(=O)[C@@H]1CSSC[C@H](NC(=O)[C@H](Cc2c[nH]cn2)NC(=O)CC[C@H](NC(=O)CCCCCCCCCCCCCCCCCCC(=O)O)C(=O)O)C(=O)N[C@@H](CC(N)=O)C(=O)N[C@@H]([C@@H](C)O)C(=O)N[C@@H](C)C(=O)N[C@@H]([C@@H](C)O)C(=O)N1)[C@@H](C)O)C(=O)N[C@@H](CC(C)C)C(=O)N1CCC[C@H]1C(=O)N1CCC[C@H]1C(=O)N[C@H](C(=O)N[C@@H](CC(N)=O)C(=O)N[C@H](C(=O)NCC(=O)N[C@@H](CO)C(=O)N[C@@H](CC(N)=O)C(=O)N[C@H](C(=O)N[C@@H](Cc1ccc(O)cc1)C(N)=O)[C@@H](C)O)C(C)C)[C@@H](C)O [Example 1, N-alpha-[(S)-4-Carboxy-4-(19-carboxynonadecanoylamino)butyryl]-[His1,Glu14,His17,Arg18]-pramlintide] ({C20 diacid-γGlu}-HCNTATCATQRLAEFLHRSSNNFGPILPPTNVGSNTY-NH2; disulfide 2-7 (inferred)) | 50 | 93 | 45 | 92
2 | 19 | CC[C@H](C)[C@H](NC(=O)[C@@H]1CCCN1C(=O)CNC(=O)[C@H](Cc1ccccc1)NC(=O)[C@H](CC(N)=O)NC(=O)[C@H](CC(N)=O)NC(=O)[C@H](CO)NC(=O)[C@H](CO)NC(=O)[C@H](Cc1c[nH]cn1)NC(=O)[C@@H](NC(=O)[C@H](CC(C)C)NC(=O)[C@H](Cc1ccccc1)NC(=O)[C@H](CCC(=O)O)NC(=O)[C@H](C)NC(=O)[C@H](CC(C)C)NC(=O)[C@H](CCCNC(=N)N)NC(=O)[C@H](CCC(N)=O)NC(=O)[C@@H](NC(=O)[C@H](C)NC(=O)[C@@H]1CSSC[C@H](NC(=O)[C@H](CCCCN)NC(=O)CC[C@H](NC(=O)CCCCCCCCCCCCCCCCCCC(=O)O)C(=O)O)C(=O)N[C@@H](CC(N)=O)C(=O)N[C@@H]([C@@H](C)O)C(=O)N[C@@H](C)C(=O)N[C@@H]([C@@H](C)O)C(=O)N1)[C@@H](C)O)C(C)C)C(=O)N[C@@H](CC(C)C)C(=O)N1CCC[C@H]1C(=O)N1CCC[C@H]1C(=O)N[C@H](C(=O)N[C@@H](CC(N)=O)C(=O)N[C@H](C(=O)NCC(=O)N[C@@H](CO)C(=O)N[C@@H](Cc1c[nH]cn1)C(=O)N[C@H](C(=O)N[C@@H](Cc1ccc(O)cc1)C(N)=O)[C@@H](C)O)C(C)C)[C@@H](C)O [Example 93, N-alpha-[(S)-4-Carboxy-4-(19-carboxynonadecanoylamino)butyryl]-[Glu14,His35]-pramlintide] ({C20 diacid-γGlu}-KCNTATCATQRLAEFLVHSSNNFGPILPPTNVGSHTY-NH2; disulfide 2-7 (inferred); C-terminus assumed) | – | – | – | –

Further lines, the compound ahead of its results:

Row | SMILES | ThT pH 4.0 lag time (h) [1] [h] | Food intake reduction 0-24 h 3 nmol/kg (%) (food intake; 0-24 h) | Food intake reduction 0-24 h 30 nmol/kg (%) (food intake; 0-24 h, 30 nmol/kg) | Food intake reduction 24-48 h 3 nmol/kg (%) (food intake; 24-48 h) | Food intake reduction 24-48 h 30 nmol/kg (%) (food intake; 24-48 h, 30 nmol/kg)
3 | CC[C@H](C)[C@H](NC(=O)[C@H](CCC(=O)O)NC(=O)CNC(=O)[C@H](Cc1ccccc1)NC(=O)[C@H](CC(N)=O)NC(=O)[C@H](CC(N)=O)NC(=O)[C@H](CO)NC(=O)[C@H](CO)NC(=O)[C@H](CCCNC(=N)N)NC(=O)[C@H](Cc1c[nH]cn1)NC(=O)[C@H](CC(C)C)NC(=O)[C@H](Cc1ccccc1)NC(=O)[C@H](CCC(=O)O)NC(=O)[C@H](C)NC(=O)[C@H](CC(C)C)NC(=O)[C@H](CCCNC(=N)N)NC(=O)[C@H](CCC(N)=O)NC(=O)[C@@H](NC(=O)[C@H](C)NC(=O)[C@@H]1CSSC[C@H](NC(=O)[C@H](Cc2c[nH]cn2)NC(=O)CC[C@H](NC(=O)CCCCCCCCCCCCCCCCCCC(=O)O)C(=O)O)C(=O)N[C@@H](CC(N)=O)C(=O)N[C@@H]([C@@H](C)O)C(=O)N[C@@H](C)C(=O)N[C@@H]([C@@H](C)O)C(=O)N1)[C@@H](C)O)C(=O)N[C@@H](CC(C)C)C(=O)N[C@@H](CO)C(=O)N[C@@H](CCCNC(=N)N)C(=O)N[C@H](C(=O)N[C@@H](CC(N)=O)C(=O)N[C@H](C(=O)NCC(=O)N[C@@H](CO)C(=O)N[C@@H](CC(N)=O)C(=O)N[C@H](C(=O)N[C@@H](Cc1ccc(O)cc1)C(N)=O)[C@@H](C)O)C(C)C)[C@@H](C)O [Example 7, N-alpha-[(S)-4-Carboxy-4-(19-carboxynonadecanoylamino)butyryl]-[His1,Glu14,His17,Arg18,Glu25,Ser28,Arg29]-pramlintide] ({C20 diacid-γGlu}-HCNTATCATQRLAEFLHRSSNNFGEILSRTNVGSNTY-NH2; disulfide 2-7 (inferred); C-terminus assumed) | 0 | 53 | – | 46 | –
4 | CC[C@H](C)[C@H](NC(=O)[C@@H]1CCCN1C(=O)CNC(=O)[C@H](Cc1ccccc1)NC(=O)[C@H](CC(N)=O)NC(=O)[C@H](CC(N)=O)NC(=O)[C@H](CO)NC(=O)[C@H](CO)NC(=O)[C@H](CCCNC(=N)N)NC(=O)[C@H](Cc1c[nH]cn1)NC(=O)[C@H](CC(C)C)NC(=O)[C@H](Cc1ccccc1)NC(=O)[C@H](CCC(=O)O)NC(=O)[C@H](C)NC(=O)[C@H](CC(C)C)NC(=O)[C@H](CCCNC(=N)N)NC(=O)[C@H](CCC(N)=O)NC(=O)[C@@H](NC(=O)[C@H](C)NC(=O)[C@@H]1CSSC[C@H](NC(=O)[C@H](CCC(=O)O)NC(=O)CC[C@H](NC(=O)CCCCCCCCCCCCCCCCCCC(=O)O)C(=O)O)C(=O)N[C@@H](CC(N)=O)C(=O)N[C@@H]([C@@H](C)O)C(=O)N[C@@H](C)C(=O)N[C@@H]([C@@H](C)O)C(=O)N1)[C@@H](C)O)C(=O)N[C@@H](CC(C)C)C(=O)N1CCC[C@H]1C(=O)N1CCC[C@H]1C(=O)N[C@H](C(=O)N[C@@H](CC(N)=O)C(=O)N[C@H](C(=O)NCC(=O)N[C@@H](CO)C(=O)N[C@@H](CC(N)=O)C(=O)N[C@H](C(=O)N1CCC[C@H]1C(N)=O)[C@@H](C)O)C(C)C)[C@@H](C)O [Example 10, N-alpha-[(S)-4-Carboxy-4-(19-carboxynonadecanoylamino)butyryl]-[Glu1,Glu14,His17,Arg18,Pro37]-pramlintide] ({C20 diacid-γGlu}-ECNTATCATQRLAEFLHRSSNNFGPILPPTNVGSNTP-NH2; disulfide 2-7) | – | 50 | – | 40 | –
5 | CC[C@H](C)[C@H](NC(=O)[C@@H]1CCCN1C(=O)CNC(=O)[C@H](Cc1ccccc1)NC(=O)[C@H](CC(N)=O)NC(=O)[C@H](CC(N)=O)NC(=O)[C@H](CO)NC(=O)[C@H](CO)NC(=O)[C@H](Cc1c[nH]cn1)NC(=O)[C@H](Cc1c[nH]cn1)NC(=O)[C@H](CC(C)C)NC(=O)[C@H](Cc1ccccc1)NC(=O)[C@H](CCC(=O)O)NC(=O)[C@H](C)NC(=O)[C@H](CC(C)C)NC(=O)[C@H](CCCNC(=N)N)NC(=O)[C@H](CCC(N)=O)NC(=O)[C@@H](NC(=O)[C@H](C)NC(=O)[C@@H]1CSSC[C@H](NC(=O)[C@H](Cc2c[nH]cn2)NC(=O)CC[C@H](NC(=O)CCCCCCCCCCCCCCCCCCC(=O)O)C(=O)O)C(=O)N[C@@H](CC(N)=O)C(=O)N[C@@H]([C@@H](C)O)C(=O)N[C@@H](C)C(=O)N[C@@H]([C@@H](C)O)C(=O)N1)[C@@H](C)O)C(=O)N[C@@H](CC(C)C)C(=O)N1CCC[C@H]1C(=O)N1CCC[C@H]1C(=O)N[C@H](C(=O)N[C@@H](CC(N)=O)C(=O)N[C@H](C(=O)NCC(=O)N[C@@H](CO)C(=O)N[C@@H](CC(N)=O)C(=O)N[C@H](C(=O)N[C@@H](Cc1ccc(O)cc1)C(N)=O)[C@@H](C)O)C(C)C)[C@@H](C)O [Example 18, N-alpha-[(S)-4-Carboxy-4-(19-carboxynonadecanoylamino)butyryl]-[His1,Glu14,His17]-pramlintide] ({C20 diacid-γGlu}-HCNTATCATQRLAEFLHHSSNNFGPILPPTNVGSNTY-NH2; disulfide 2-7 (inferred); C-terminus assumed) | – | 40 | – | 32 | –
6 | CC[C@H](C)[C@H](NC(=O)[C@@H]1CCCN1C(=O)CNC(=O)[C@H](Cc1ccccc1)NC(=O)[C@H](CC(N)=O)NC(=O)[C@H](CC(N)=O)NC(=O)[C@H](CO)NC(=O)[C@H](CO)NC(=O)[C@H](Cc1c[nH]cn1)NC(=O)[C@H](Cc1c[nH]cn1)NC(=O)[C@H](CC(C)C)NC(=O)[C@H](Cc1ccccc1)NC(=O)[C@H](CCC(=O)O)NC(=O)[C@H](C)NC(=O)[C@H](CC(C)C)NC(=O)[C@H](CCCNC(=N)N)NC(=O)[C@H](CCC(N)=O)NC(=O)[C@@H](NC(=O)[C@H](C)NC(=O)[C@@H]1CSSC[C@H](NC(=O)[C@H](Cc2c[nH]cn2)NC(=O)[C@H](Cc2c[nH]cn2)NC(=O)[C@H](Cc2c[nH]cn2)NC(=O)CC[C@H](NC(=O)CCCCCCCCCCCCCCCCCCC(=O)O)C(=O)O)C(=O)N[C@@H](CCCNC(=N)N)C(=O)N[C@@H]([C@@H](C)O)C(=O)N[C@@H](C)C(=O)N[C@@H]([C@@H](C)O)C(=O)N1)[C@@H](C)O)C(=O)N[C@@H](CC(C)C)C(=O)N1CCC[C@H]1C(=O)N1CCC[C@H]1C(=O)N[C@H](C(=O)N[C@@H](CC(N)=O)C(=O)N[C@H](C(=O)NCC(=O)N[C@@H](CO)C(=O)N[C@@H](CC(N)=O)C(=O)N[C@H](C(=O)N[C@@H](Cc1ccc(O)cc1)C(N)=O)[C@@H](C)O)C(C)C)[C@@H](C)O [Example 22, N-alpha-[(S)-4-Carboxy-4-(19-carboxynonadecanoylamino)butyryl]-His-His-[His1,Arg3,Glu14,His17]-pramlintide] ({C20 diacid-γGlu}-HHHCRTATCATQRLAEFLHHSSNNFGPILPPTNVGSNTY-NH2; disulfide 4-9 (inferred)) | 2.7 | 26 | – | 5 | –
